Where two headings read alike, the source gives them in different places.
What was measured:
[1] = molecular target: T1, human 5-HT6 (Homo sapiens, UniProt P50406); assay: [3H]-LSD radioligand binding assay, 5-HT6R; settings: HEK293 expressing human 5-HT6R
T1 construct: expressed in transfected cells
Description: Next, the ligands’ affinity for the 5-HT6 receptors was evaluated in the [^3H]-LSD radioligand binding assay. Experiments were performed in a stable HEK293 cell line expressing the human 5-HT6R.
The pellets were stored at −80 °C.

[2] = Affinity to phospholipids, IAM column (CHI IAM); assay type: physicochemical; settings: IAM.PC.DD2 column, pH 7.4
Description: (§1) We began with an assay for lipophilicity, affinity for phospholipids (for 40 compounds), and drug binding to human serum albumin (HSA) (for 20 compounds), using chromatographic protocols developed by Valko [46] and implemented in our laboratory [47]. […] These methods allowed the determination of chromatographic hydrophobicity indices (CHIs), binding to HSA (%HSA), and phospholipids (CHIIAM) using a single-gradient elution experiment and comparison to reference substances.
(§2) The mobile phase flow rate was 1.5 mL/min, and the column was maintained at 30 °C. • Chiralpak® HSA (50 mm × 4 mm; 5 µm with safety guard column; Daicel Chiral Technologies, West Chester, PA, USA), mobile phase A: 50 mM ammonium acetate, mobile phase B: HPLC-grade isopropanol (VWR International, Leuven, Belgium). For the first 15 min, the linear gradient from 0 to 20% isopropanol was applied and then held at 20% isopropanol for 12 min. In the last 5 min of the sequence, the mobile phase mixture received a pure ammonium acetate solution. The column temperature was held at 30 °C, whereas the flow rate was 0.9 mL/min.
(§3) The reference substances for the calibration of HSA, C18, and IAM columns were purchased, respectively: acetanilide, butyrophenone, diclofenac, and octanonophenone (Alfa Aesar, Haverhill, MA, USA); acetophenone, benzimidazole, colchicine, indole, indometacin, paracetamol, and theophylline (Sigma-Aldrich, Steinheim, Germany); nicardipine and nizatidine (Cayman Chemical, Ann Arbor, MI, USA); carbamazepine, heptanophenone, hexanophenone, propiophenone, and valerophenone (Acros Organic, Pittsburg, PA, USA). Before chromatographic experiments, solutes were dissolved in dimethyl sulfoxide (Avantor Performance Materials Poland S.A., Gliwice, Poland) to obtain a 200 µg/mL concentration. The detection was performed in the UV region at the wavelength from 190 nm to 300 nm. The injected volume was 5 μL, and each compound was analyzed in triplicate.

[3] = Chromatographic hydrophobicity index on C18 column (lipophilicity); assay type: physicochemical
Description: as §1, §2, §3

T1 sequence (P50406 whole entry): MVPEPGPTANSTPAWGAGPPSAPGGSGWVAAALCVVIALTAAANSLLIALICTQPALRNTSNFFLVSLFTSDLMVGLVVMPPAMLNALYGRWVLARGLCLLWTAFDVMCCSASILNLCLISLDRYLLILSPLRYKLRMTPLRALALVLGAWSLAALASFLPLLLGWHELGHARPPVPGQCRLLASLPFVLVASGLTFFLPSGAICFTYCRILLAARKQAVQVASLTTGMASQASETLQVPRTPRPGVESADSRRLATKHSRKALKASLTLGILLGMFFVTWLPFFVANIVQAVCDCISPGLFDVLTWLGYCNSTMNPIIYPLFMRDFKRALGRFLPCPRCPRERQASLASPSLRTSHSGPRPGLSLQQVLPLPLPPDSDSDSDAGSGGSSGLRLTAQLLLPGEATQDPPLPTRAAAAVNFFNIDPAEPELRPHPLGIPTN

Compound	Ki ([1]; read-out: 5-HT6 Ki) [nM]	CHI IAM [2]	CHI C18 pH 2.6 [3]	CHI C18 pH 7.4 [3]	CHI C18 pH 10.5 [3]	melting point [°C]	Ki ([1]; 5-HT6 Ki) [nM]
Nc1nc2ccccc2n1S(=O)(=O)c1ccccc1 [PR 1, 1-(benzenesulfonyl)-1H-1,3-benzodiazol-2-amine]	2160 ± 539						
O=S(=O)(NC1=Nc2cc(Cl)ccc2CN1)c1ccc2ccccc2c1 [PR 33, N -(7-chloro-3,4-dihydroquinazolin-2-yl)naphthalene-2-sulfonamide]	1960 ± 434	44.9	98.3	96.4	99.9	220 to 222	
CN(c1nc2ccccc2n1C)S(=O)(=O)c1ccc2ccccc2c1 [PR 12, N -methyl-N-(1-methyl-1H-1,3-benzodiazol-2-yl)naphthalene-2-sulfonamide]	41900 ± 10500						
O=S(=O)(NC1=Nc2cc(F)ccc2CN1)c1cccc2ccccc12 [PR 56, N -(7-fluoro-3,4-dihydroquinazolin-2-yl)naphthalene-1-sulfonamide]	876 ± 201	40.5	91.0	89.0	95.4	222 to 226	
O=S(=O)(NC1=Nc2ccc(Cl)c(Cl)c2CN1)c1cccc2ccccc12 [PR 50, N -(5,6-dichloro-3,4-dihydroquinazolin-2-yl)naphthalene-1-sulfonamide]	451 ± 102	49.0	106.2	103.9	108.6	233 to 240	
COc1ccc(Cl)cc1S(=O)(=O)NC1=Nc2ccccc2CN1 [PR 25, 5-chloro-N-(3,4-dihydroquinazolin-2-yl)-2-methoxybenzene-1-sulfonamide]	4640 ± 1160	35.3	82.8	81.0	83.0	157 to 165	
CC1NC(NS(=O)(=O)c2ccc3ccccc3c2)=Nc2ccccc21 (centres unmarked) [PR 34, N -(4-methyl-3,4-dihydroquinazolin-2-yl)naphthalene-2-sulfonamide]	702 ± 152						
O=S(=O)(NC1=NCc2cc(Cl)ccc2N1)c1ccc2ccccc2c1 [PR 32, N -(6-chloro-3,4-dihydroquinazolin-2-yl)naphthalene-2-sulfonamide]	948 ± 212						
Nc1nc2ccccc2n1S(=O)(=O)c1cccc2ccccc12 [PR 3, 1-(naphthalene-1-sulfonyl)-1H-1,3-benzodiazol-2-amine]	148 ± 37						
O=S(=O)(NC1=NCc2ccccc2N1)c1ccccc1 [PR 13, N-(3,4-dihydroquinazolin-2-yl)benzenesulfonamide]	2610 ± 651						
CC1NC(NS(=O)(=O)c2ccccc2)=Nc2ccccc21 (centres unmarked) [PR 28, N -(4-methyl-3,4-dihydroquinazolin-2-yl)benzenesulfonamide]	4030 ± 1010						
O=S(=O)(NC1=Nc2cccc(Cl)c2CN1)c1c(Cl)ccc2ccccc12 [PR 52, 2-chloro-N-(5-chloro-3,4-dihydroquinazolin-2-yl)naphthalene-1-sulfonamide]	133 ± 33					267 to 270	
O=S(=O)(NC1=Nc2ccc(C(F)(F)F)cc2CN1)c1cccc2ccccc12 [PR 57, N -[6-(trifluoromethyl)-3,4-dihydroquinazolin-2-yl]naphthalene-1-sulfonamide]	1020 ± 235					215 to 222	
O=S(=O)(NC1=NCc2ccccc2N1)c1ccc2ccccc2c1 [PR 29, N -(3,4-dihydroquinazolin-2-yl)naphthalene-2-sulfonamide]	3630 ± 909						
O=S(=O)(NC1=Nc2ccc(Cl)cc2CN1)c1ccccc1 [PR 27, N -(6-chloro-3,4-dihydroquinazolin-2-yl)benzenesulfonamide]	1690 ± 422						
O=S(=O)(NC1=Nc2ccccc2CN1)c1ccc(-c2ccccc2)cc1 [PR 26, N -(3,4-dihydroquinazolin-2-yl)-[1,1′-biphenyl]-4-sulfonamide]	4310 ± 1080						
O=S(=O)(NC1=Nc2ccc(N3CCOCC3)cc2CN1)c1cccc2ccccc12 [PR 65, N -[6-(morpholin-4-yl)-3,4-dihydroquinazolin-2-yl]naphthalene-1-sulfonamide]	4700 ± 1080					278 to 281	
CC1NC(NS(=O)(=O)c2cccc3ccccc23)=Nc2cc(Cl)ccc21 (centres unmarked) [PR 70, N -(7-chloro-4-methyl-3,4-dihydroquinazolin-2-yl)naphthalene-1-sulfonamide]	985 ± 245	45.8	100.2	99.7	101.0	214 to 219	
Cc1c(S(=O)(=O)n2c(N)nc3ccccc32)sc2ccc(F)cc12 [PR 7, 1-[(5-fluoro-3-methyl-1-benzothiophen-2-yl)sulfonyl]-1H-1,3-benzodiazol-2-amine]	2950 ± 737						
N#Cc1cccc(S(=O)(=O)n2c(N)nc3ccccc32)c1 [PR 2, 3-[(2-amino-1H-1,3-benzodiazol-1-yl)sulfonyl]benzonitrile]	49200 ± 1230						

Compound	Ki ([1]; read-out: 5-HT6 Ki) [nM]	CHI IAM [2]	CHI C18 pH 2.6 [3]	CHI C18 pH 7.4 [3]	CHI C18 pH 10.5 [3]	melting point [°C]	Ki ([1]; 5-HT6 Ki) [nM]
N -(3,4-dihydroquinazolin-2-yl)naphthalene-2-sulfonamide [PR 39]	4270 ± 983						
COc1cccc(S(=O)(=O)NC2=Nc3ccccc3CN2)c1 [PR 24, N -(3,4-dihydroquinazolin-2-yl)-3-methoxybenzene-1-sulfonamide]	906 ± 227	31.4	74.1	74.5	75.5	108 to 114	
O=S(=O)(NC1=NCCc2ccccc2N1)c1ccc2ccccc2c1 [PR 38, N -(4,5-dihydro-1H-1,3-benzodiazepin-2-yl)naphthalene-2-sulfonamide]	1410 ± 331					175 to 180	
O=S(=O)(NC1=Nc2cccc(Cl)c2CN1)c1ccc2ccccc2c1 [PR 31, N -(5-chloro-3,4-dihydroquinazolin-2-yl)naphthalene-2-sulfonamide]	2170 ± 538	46.0	99.7	97.4	100.6	202 to 204	
O=S(=O)(NC1=Nc2ccc(F)cc2CN1)c1cccc2ccccc12 [PR 55, N -(6-fluoro-3,4-dihydroquinazolin-2-yl)naphthalene-1-sulfonamide]	1790 ± 412					206 to 210	
CN(C)c1cccc2c1CNC(NS(=O)(=O)c1cccc3ccccc13)=N2 [PR 63, N -[5-(dimethylamino)-3,4-dihydroquinazolin-2-yl]naphthalene-1-sulfonamide]	151 ± 35						
O=S(=O)(NC1=Nc2ccccc2CN1)c1ccccc1Cl [PR 18, 2-chloro-N-(3,4-dihydroquinazolin-2-yl)benzene-1-sulfonamide]	1800 ± 451	33.5	76.4	76.3	86.6	217 to 222	
CC1NC(NS(=O)(=O)c2ccc3ccccc3c2)=Nc2ccc(Cl)cc21 (centres unmarked) [PR 35, N -(6-chloro-4-methyl-3,4-dihydroquinazolin-2-yl)naphthalene-2-sulfonamide]	2380 ± 593						
O=S(=O)(NC1=Nc2ccccc2CN1)c1ccc(F)c(F)c1 [PR 15, N -(3,4-dihydroquinazolin-2-yl)-3,4-difluorobenzene-1-sulfonamide]	5270 ± 1330						
Nc1nc2ccccc2n1S(=O)(=O)c1csc2ccccc12 [PR 8, 1-(1-benzothiophene-3-sulfonyl)-1H-1,3-benzodiazol-2-amine]		40.3	89.8	90.3	91.0	192 to 195	133 ± 33
O=S(=O)(NC1=Nc2ccccc2CN1)c1ccc(C(F)(F)F)cc1 [PR 16, N -(3,4-dihydroquinazolin-2-yl)-4-(trifluoromethyl)benzene-1-sulfonamide]	5100 ± 1270						
CC1NC(NS(=O)(=O)c2ccc3ccccc3c2)=Nc2cc(Cl)ccc21 (centres unmarked) [PR 37, N -(7-chloro-4-methyl-3,4-dihydroquinazolin-2-yl)naphthalene-2-sulfonamide]	2220 ± 534	46.1	101.0	100.1	102.6	167 to 171	
Nc1nc2cc(Cl)ccc2n1S(=O)(=O)c1cccc2ccccc12 [PR 6, 5-chloro-1-(naphthalene-1-sulfonyl)-1H-1,3-benzodiazol-2-amine]	704 ± 176						
Nc1nc2ccccc2n1S(=O)(=O)c1ccc2c(c1)CC(=O)N2 [PR 5, 5-[(2-amino-1H-1,3-benzodiazol-1-yl)sulfonyl]-2,3-dihydro-1H-indol-2-one]	14800 ± 3690						
O=S(=O)(NC1=Nc2ccccc2CN1)c1cccc2cccc(Cl)c12 [PR 45, 8-chloro-N-(3,4-dihydroquinazolin-2-yl)naphthalene-1-sulfonamide]	736 ± 169					103 to 105	
O=S(=O)(NC1=Nc2ccccc2CN1)c1c(Cl)cccc1Cl [PR 22, 2,6-dichloro-N-(3,4-dihydroquinazolin-2-yl)benzene-1-sulfonamide]	1460 ± 364					168 to 174	
Nc1nc2ccccc2n1S(=O)(=O)c1ccc2ccccc2c1 [PR 4, 1-(naphthalene-2-sulfonyl)-1H-1,3-benzodiazol-2-amine]	330 ± 83						
O=S(=O)(Nc1nc2ccccc2[nH]1)c1ccccc1 [PR 10, N -(1H-1,3-benzodiazol-2-yl)benzenesulfonamide]	1720 ± 429						
CC1NC(NS(=O)(=O)c2cccc3ccccc23)=Nc2ccc(Cl)cc21 (centres unmarked) [PR 69, N -(6-chloro-4-methyl-3,4-dihydroquinazolin-2-yl)naphthalene-1-sulfonamide]	372 ± 93					144 to 153	
O=S(=O)(NC1=Nc2ccccc2CN1)c1cccc(Cl)c1Cl [PR 20, 2,3-dichloro-N-(3,4-dihydroquinazolin-2-yl)benzene-1-sulfonamide]	293 ± 73						
